{"source": "patent US10507204B2", "about": "“Pharmaceutical composition comprising amorphous lenalidomide” (SYNTHON B.V., priority 2014, dated 2019)", "origin": "cited, not measured here"}
{"smiles": "Nc1cccc2c1CN(C1CCC(=O)NC1=O)C2=O", "note": "(racemic) [Lenalidomide, (RS)-3-(4-Amino-1-oxo 1,3-dihydro-2H-isoindol-2-yl)piperidine-2,6-dione]", "values": [{"measurement": "solubility in water", "result": "slightly soluble"}]}
